Patent US20220202824A1, “Methods for Treating Centronuclear Myopathy” (Stemline Therapeutics, Inc., priority 2018, published 2022)
Like-named read-outs stand apart in the source and are kept apart here.

Columns and labels:
PIK3C2B = PIK3C2B (Homo sapiens, UniProt O00750); settings: cited from earlier work; for IC50: read-out: IC50 for PIK3C2B
PI3Kβ = PI3Kβ (Homo sapiens, UniProt P42338); settings: literature value; read-out: IC50 for other PI3Ks: PI3Kβ; cited from earlier work
395 kinases = test: KINOMEscan competitive binding profiling assay of 395 kinases (Ambit Biosciences); settings: single concentration 10 μM
Text: Initially, 3-{[(3S)-4-(6,6-dimethyl-4-oxo-4,5,6,7-tetrahydro[1,3]thiazolo[5,4-c]pyridin-2-yl)morpholin-3-yl]methyl}-N,N,1-trimethyl-1H-indole-5-carboxamide (referred as Test Compound here in Example 2) was screened against kinase targets representing diverse protein kinase family members for competitive binding using a commercially available profiling assay of 395 kinases (Ambit Biosciences, KINOMEscan), and the compound was found most likely to inhibit the kinase activity of PI3Ks compared to other kinases.

PIK3C2A (PI3K-C2 alpha) = PIK3C2A (PI3K-C2 alpha) (Homo sapiens, UniProt O00443); test: SelectScreen Adapta universal kinase assay, PIK3C2A; type: biochemical; settings: [ATP] 10 uM; for inhibition at 0.00101 µM / inhibition at 0.00303 µM / inhibition at 0.0091 µM / inhibition at 0.0273 µM / inhibition at 0.082 µM / inhibition at 0.247 µM / inhibition at 0.741 µM / inhibition at 2.222 µM / inhibition at 6.667 µM / inhibition at 20 µM: PIK3C2A; for inhibition at 0.00101 µM: Test Compound 1.01 nM; for inhibition at 0.00303 µM: Test Compound 3.03 nM; for inhibition at 0.0091 µM: Test Compound 9.1 nM; for inhibition at 0.0273 µM: Test Compound 27.3 nM; for inhibition at 0.082 µM: Test Compound 82 nM; for inhibition at 0.247 µM: Test Compound 247 nM; for inhibition at 0.741 µM: Test Compound 741 nM; for inhibition at 2.222 µM: Test Compound 2222 nM; for inhibition at 6.667 µM: Test Compound 6667 nM; for inhibition at 20 µM: Test Compound 20000 nM
Sequence of PIK3C2A (PI3K-C2 alpha) (O00443 whole entry): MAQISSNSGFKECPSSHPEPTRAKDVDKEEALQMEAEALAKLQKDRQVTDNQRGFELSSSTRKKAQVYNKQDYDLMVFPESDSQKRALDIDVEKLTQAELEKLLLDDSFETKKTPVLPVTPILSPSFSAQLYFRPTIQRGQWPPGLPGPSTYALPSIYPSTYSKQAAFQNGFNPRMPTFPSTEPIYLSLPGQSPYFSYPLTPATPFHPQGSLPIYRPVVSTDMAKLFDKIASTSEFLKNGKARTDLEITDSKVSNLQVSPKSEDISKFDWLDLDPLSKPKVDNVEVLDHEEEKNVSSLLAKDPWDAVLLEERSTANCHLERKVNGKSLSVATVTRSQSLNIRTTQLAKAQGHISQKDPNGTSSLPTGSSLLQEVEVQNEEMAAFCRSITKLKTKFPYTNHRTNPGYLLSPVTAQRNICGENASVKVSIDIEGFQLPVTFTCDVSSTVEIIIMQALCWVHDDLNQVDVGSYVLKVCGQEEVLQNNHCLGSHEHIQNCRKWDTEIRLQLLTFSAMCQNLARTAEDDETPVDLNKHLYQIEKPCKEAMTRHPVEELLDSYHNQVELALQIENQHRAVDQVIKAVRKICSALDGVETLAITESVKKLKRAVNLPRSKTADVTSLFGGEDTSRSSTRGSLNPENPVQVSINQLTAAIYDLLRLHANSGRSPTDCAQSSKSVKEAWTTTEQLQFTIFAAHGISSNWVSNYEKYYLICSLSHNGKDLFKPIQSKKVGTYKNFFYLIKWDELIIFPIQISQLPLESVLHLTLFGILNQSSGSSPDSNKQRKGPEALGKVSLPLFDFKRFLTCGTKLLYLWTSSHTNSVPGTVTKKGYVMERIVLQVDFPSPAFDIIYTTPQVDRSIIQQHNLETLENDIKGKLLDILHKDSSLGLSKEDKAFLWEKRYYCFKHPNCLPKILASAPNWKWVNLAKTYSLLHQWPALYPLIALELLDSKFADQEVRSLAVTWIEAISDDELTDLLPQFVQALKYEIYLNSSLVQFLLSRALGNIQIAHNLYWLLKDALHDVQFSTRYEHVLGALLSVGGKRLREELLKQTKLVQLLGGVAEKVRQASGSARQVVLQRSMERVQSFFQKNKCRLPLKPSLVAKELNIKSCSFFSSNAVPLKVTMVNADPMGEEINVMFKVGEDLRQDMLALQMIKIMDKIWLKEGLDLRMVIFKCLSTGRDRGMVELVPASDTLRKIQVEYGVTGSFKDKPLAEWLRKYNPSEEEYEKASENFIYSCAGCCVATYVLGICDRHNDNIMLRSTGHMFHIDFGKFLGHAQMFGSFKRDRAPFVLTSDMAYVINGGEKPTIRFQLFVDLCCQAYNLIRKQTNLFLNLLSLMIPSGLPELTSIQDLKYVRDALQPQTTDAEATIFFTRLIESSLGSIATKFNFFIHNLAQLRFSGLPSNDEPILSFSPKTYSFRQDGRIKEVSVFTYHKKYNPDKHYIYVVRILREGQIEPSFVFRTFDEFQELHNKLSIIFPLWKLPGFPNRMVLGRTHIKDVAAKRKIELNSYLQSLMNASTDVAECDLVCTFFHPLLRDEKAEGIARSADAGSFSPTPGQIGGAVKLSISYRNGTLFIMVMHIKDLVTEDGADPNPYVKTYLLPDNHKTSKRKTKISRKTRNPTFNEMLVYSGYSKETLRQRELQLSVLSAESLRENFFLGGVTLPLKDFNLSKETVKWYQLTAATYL
Description: (§1) Kinase activities of PIK3C2B (and PIK3C2A for comparison) were obtained using the SelectScreen™ Profiling Service (Invitrogen) based on Adapta™ universal kinase assay protocol and conditions (Invitrogen Corporation, Cat. No. PV5099).
(§2) Adapta™ universal kinase assay: The assay itself can be divided into two phases: a kinase reaction phase, and an ADP detection phase. In the kinase reaction phase, all components required for the kinase reaction are added to the well, and the reaction is allowed to incubate for 60 minutes. After the reaction, a detection solution consisting of a europium labeled anti-ADP antibody, an Alexa Fluor™ 647 labeled ADP tracer, and EDTA (to stop the kinase reaction) is added to the assay well. ADP formed by the kinase reaction (in the absence of an inhibitor) displaces the Alexa Fluor® 647 labeled ADP tracer from the antibody, resulting in a decrease in the TR-FRET signal. In the presence of an inhibitor, the amount of ADP formed by the kinase reaction is reduced, and the resulting intact antibody-tracer interaction results in a high TR-FRET signal. ADP formation is determined by calculating the emission ratio from the assay well.
(§3) The emission ratio is calculated by dividing the intensity of the tracer (acceptor) emission by the intensity of the Eu (donor) emission at 615 nm as shown in the equation below. Emission Ratio=AlexaFluor™647 Emission (665 nm)/Europium Emission (615 nm).
(§4) The Test Compound was screened in 1% DMSO (final solution). For 10-point titrations, 3-fold serial dilutions were conducted from the starting concentrations of 20,000 nM for PIK3C2A and 1,000 nM for PIK3C2B.
(§5) For PIK3C2A (PI3K-C2 alpha), the 2×PIK3C2A (PI3K-C2 alpha)/PI mixture was prepared in a Kinase Buffer including 00 mM HEPES pH 7.5, 200 mM NaCl, 0.06% CHAPS, 6 mM MgCl2, 2 mM EGTA. The final 10 μL Kinase Reaction has 8 ng PIK3C2A (PI3K-C2 alpha) and 100 μM PI in 57.5 mM HEPES pH 7.5, 100 mM NaCl, 0.03% CHAPS, 3 mM MgCl2, 1 mM EGTA. After the 1 hour Kinase Reaction incubation, 5 μL of Detection Mix was added.
(§6) All ATP Solutions were diluted to a 4× working concentration in water. ATP Km (apparent) was previously determined using a radiometric assay except when no substrate is available in which case an Adapta™ assay was conducted.
(§7) The Detection Mix was prepared in TR-FRET Dilution Buffer. The Detection mix consists of EDTA (30 mM), Eu-anti-ADP antibody (30 nM) and ADP tracer. The detection mix contains the EC60 concentration of tracer for 5-100 μM ATP.
(§8) Adapta™ assay protocol: 2.5 μL 4× Test Compound or 100 nL 100× plus 2.4 μL kinase buffer was dispensed onto white 384-well small volume polystyrene plate (Corning, Cat. No. 3674). Then 2.5 μL of 4×ATP Solution followed by 5 μL of 2× Substrate/Kinase Mixture were added. The final 10 μL Kinase Reaction has 8 ng PIK3C2B (PI3K-C2 beta) and 100 μM PI in 57.5 mM HEPES pH 7.5, 100 mM NaCl, 0.03% CHAPS, 3 mM MgCl2, 1 mM EGTA After 30 seconds plate shake and 2-minutes centrifugation at 1000×g for 2 minutes, Kinase Reaction incubation was performed at room temperature for 60 minutes.
(§9) After the Kinase Reaction incubation, 5 μL of Detection Mix was added. After 30 seconds plate shake and 2-minutes centrifugation at 1000×g for 2 minutes, Detection Mix equilibration incubation was performed at room temperature for 60 minutes.
(§10) Adapta™ data analysis: The fluorescent data obtained was analyzed using a data fitting program, XLfit (ID Business Solutions, Guildford, UK). IC50 values were derived by fitting a sigmoidal dose-response curve to a plot of assay readout over inhibitor concentration.

PIK3C2B (PI3K-C2 beta) = PIK3C2B (PI3K-C2 beta) (Homo sapiens, UniProt O00750); test: SelectScreen Adapta universal kinase assay, PIK3C2B; type: biochemical; settings: for inhibition at 51 pM / inhibition at 0.000153 µM / inhibition at 0.00046 µM / inhibition at 0.00137 µM / inhibition at 0.0041 µM / inhibition at 0.0123 µM / inhibition at 0.037 µM / inhibition at 0.111 µM / inhibition at 0.333 µM / inhibition at 1 µM: PIK3C2B; for inhibition at 51 pM: Test Compound 0.051 nM; for inhibition at 0.000153 µM: Test Compound 0.153 nM; for inhibition at 0.00046 µM: Test Compound 0.46 nM; for inhibition at 0.00137 µM: Test Compound 1.37 nM; for inhibition at 0.0041 µM: Test Compound 4.1 nM; for inhibition at 0.0123 µM: Test Compound 12.3 nM; for inhibition at 0.037 µM: Test Compound 37 nM; for inhibition at 0.111 µM: Test Compound 111 nM; for inhibition at 0.333 µM: Test Compound 333 nM; for inhibition at 1 µM: Test Compound 1000 nM
Sequence of PIK3C2B (PI3K-C2 beta) (O00750 whole entry): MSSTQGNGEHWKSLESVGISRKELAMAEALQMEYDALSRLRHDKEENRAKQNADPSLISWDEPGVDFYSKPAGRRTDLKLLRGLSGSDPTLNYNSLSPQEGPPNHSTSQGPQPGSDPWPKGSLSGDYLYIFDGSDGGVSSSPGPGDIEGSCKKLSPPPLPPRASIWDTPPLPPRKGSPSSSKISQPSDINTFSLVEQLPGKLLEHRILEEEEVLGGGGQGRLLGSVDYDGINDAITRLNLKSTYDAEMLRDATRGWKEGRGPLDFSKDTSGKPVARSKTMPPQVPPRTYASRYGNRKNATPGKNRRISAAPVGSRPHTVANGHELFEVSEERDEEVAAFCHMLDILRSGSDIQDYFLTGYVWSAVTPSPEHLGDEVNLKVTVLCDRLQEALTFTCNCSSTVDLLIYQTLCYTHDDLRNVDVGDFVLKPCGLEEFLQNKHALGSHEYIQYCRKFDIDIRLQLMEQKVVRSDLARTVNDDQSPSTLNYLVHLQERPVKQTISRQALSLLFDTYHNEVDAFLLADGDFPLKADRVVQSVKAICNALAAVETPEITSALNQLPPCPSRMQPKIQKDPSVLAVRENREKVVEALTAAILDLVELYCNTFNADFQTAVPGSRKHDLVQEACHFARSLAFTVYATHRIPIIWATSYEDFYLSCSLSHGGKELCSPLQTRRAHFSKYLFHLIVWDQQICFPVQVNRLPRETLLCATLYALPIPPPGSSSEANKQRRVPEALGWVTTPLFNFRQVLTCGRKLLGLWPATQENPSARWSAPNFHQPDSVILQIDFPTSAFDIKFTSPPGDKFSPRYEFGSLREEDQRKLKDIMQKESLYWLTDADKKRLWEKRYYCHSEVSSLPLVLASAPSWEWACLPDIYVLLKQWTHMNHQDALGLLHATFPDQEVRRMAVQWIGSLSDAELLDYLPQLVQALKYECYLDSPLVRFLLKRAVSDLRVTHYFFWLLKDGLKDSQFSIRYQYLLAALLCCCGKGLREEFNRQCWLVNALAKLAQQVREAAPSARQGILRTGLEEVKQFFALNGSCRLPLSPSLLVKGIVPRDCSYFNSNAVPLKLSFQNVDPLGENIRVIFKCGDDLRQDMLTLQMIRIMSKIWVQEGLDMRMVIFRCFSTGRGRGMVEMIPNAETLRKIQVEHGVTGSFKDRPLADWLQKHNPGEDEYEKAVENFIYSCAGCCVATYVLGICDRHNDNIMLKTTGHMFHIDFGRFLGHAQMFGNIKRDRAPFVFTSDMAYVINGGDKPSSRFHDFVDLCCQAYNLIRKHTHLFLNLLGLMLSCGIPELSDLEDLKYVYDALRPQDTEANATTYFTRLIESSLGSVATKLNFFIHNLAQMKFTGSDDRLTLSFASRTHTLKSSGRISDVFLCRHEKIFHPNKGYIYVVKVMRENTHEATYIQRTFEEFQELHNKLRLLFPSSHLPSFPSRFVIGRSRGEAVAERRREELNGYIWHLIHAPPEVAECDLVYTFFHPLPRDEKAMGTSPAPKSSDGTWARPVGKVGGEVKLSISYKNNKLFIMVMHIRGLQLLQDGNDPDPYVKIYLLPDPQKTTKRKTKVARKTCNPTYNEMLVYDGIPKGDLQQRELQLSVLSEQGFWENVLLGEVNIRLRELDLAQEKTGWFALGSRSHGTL
Description: as §1, §2, §3, §4
as §5, with “PIK3C2B” for “PIK3C2A”, “beta),” for “alpha),”, “2×PIK3C2B” for “2×PIK3C2A”, “beta)/PI” for “alpha)/PI”, “100” for “a Kinase Buffer including 00”, “beta)” for “alpha)”
as §6, §7, §8, §9, §10

[1] = [ATP] 10 uM, read-out: % Inhibition point 1
[2] = [ATP] 10 uM, read-out: % Inhibition point 2

Sequence of PIK3C2B (O00750 whole entry): as above

SMILES: CC[C@H](Nc1ncnc2[nH]cnc12)c1nc2cccc(F)c2c(=O)n1-c1ccccc1
- IC50 (PIK3C2B): 1000 nM

SMILES: Cc1c(Cn2c(C)nc(=O)c3sc(N4CCOCC4)nc32)cccc1C(F)(F)F
- selectivity in favor of PI3Kβ (Class I) (PIK3C2B; PI3Kβ over PIK3C2B): 166-fold selectivity in favor of PI3Kβ (Class I) (Lin et al. ACS Med. Chem. Lett. 2012, 3, 524-529)
- IC50 (PIK3C2B; literature value): 1000 nM
- IC50 (PI3Kβ): 6 nM

SMILES: CN(C)C(=O)c1ccc2c(c1)c(C[C@H]1COCCN1c1nc3c(s1)C(=O)NC(C)(C)C3)cn2C [Test Compound, 3-{[(3S)-4-(6,6-dimethyl-4-oxo-4,5,6,7-tetrahydro[1,3]thiazolo[5,4-c]pyridin-2-yl)morpholin-3-yl]methyl}-N,N,1-trimethyl-1H-indole-5-carboxamide]
- hits in kinase binding screen (395 kinases): no hits other than PI3Ks
- inhibition at 0.00101 µM (PIK3C2A (PI3K-C2 alpha); read-out: % Inhibition point 1): 25%
- inhibition at 0.00101 µM (PIK3C2A (PI3K-C2 alpha); read-out: % Inhibition point 2): -12%
- inhibition at 0.00303 µM (PIK3C2A (PI3K-C2 alpha); read-out: % Inhibition point 1): -24%
- inhibition at 0.00303 µM (PIK3C2A (PI3K-C2 alpha); read-out: % Inhibition point 2): 3%
- inhibition at 0.0091 µM (PIK3C2A (PI3K-C2 alpha); read-out: % Inhibition point 1): -3%
- inhibition at 0.0091 µM (PIK3C2A (PI3K-C2 alpha); read-out: % Inhibition point 2): 16%
- inhibition at 0.0273 µM (PIK3C2A (PI3K-C2 alpha); read-out: % Inhibition point 1): 13%
- inhibition at 0.0273 µM (PIK3C2A (PI3K-C2 alpha); read-out: % Inhibition point 2): -4%
- inhibition at 0.082 µM (PIK3C2A (PI3K-C2 alpha); read-out: % Inhibition point 1): 0%
- inhibition at 0.082 µM (PIK3C2A (PI3K-C2 alpha); read-out: % Inhibition point 2): 11%
- inhibition at 0.247 µM (PIK3C2A (PI3K-C2 alpha); read-out: % Inhibition point 1): 15%
- inhibition at 0.247 µM (PIK3C2A (PI3K-C2 alpha); read-out: % Inhibition point 2): 6%
- inhibition at 0.741 µM (PIK3C2A (PI3K-C2 alpha); read-out: % Inhibition point 1): 17%
- inhibition at 0.741 µM (PIK3C2A (PI3K-C2 alpha); read-out: % Inhibition point 2): 30%
- inhibition at 2.222 µM (PIK3C2A (PI3K-C2 alpha); read-out: % Inhibition point 1): 46%
- inhibition at 2.222 µM (PIK3C2A (PI3K-C2 alpha); read-out: % Inhibition point 2): 36%
- inhibition at 6.667 µM (PIK3C2A (PI3K-C2 alpha); read-out: % Inhibition point 1): 55%
- inhibition at 6.667 µM (PIK3C2A (PI3K-C2 alpha); read-out: % Inhibition point 2): 46%
- inhibition at 20 µM (PIK3C2A (PI3K-C2 alpha); read-out: % Inhibition point 1): 81%
- inhibition at 20 µM (PIK3C2A (PI3K-C2 alpha); read-out: % Inhibition point 2): 78%
- IC50 (PIK3C2A (PI3K-C2 alpha)): 4300 nM
- selectivity over C2A (Class II isoform) (PIK3C2B (PI3K-C2 beta); PIK3C2B vs PIK3C2A IC50): 449-fold selectivity over
- inhibition at 51 pM (PIK3C2B (PI3K-C2 beta); [1]): 16%
- inhibition at 51 pM (PIK3C2B (PI3K-C2 beta); [2]): 17%
- inhibition at 0.000153 µM (PIK3C2B (PI3K-C2 beta); [1]): -3%
- inhibition at 0.000153 µM (PIK3C2B (PI3K-C2 beta); [2]): 8%
- inhibition at 0.00046 µM (PIK3C2B (PI3K-C2 beta); [1]): 10%
- inhibition at 0.00046 µM (PIK3C2B (PI3K-C2 beta); [2]): 21%
- inhibition at 0.00137 µM (PIK3C2B (PI3K-C2 beta); [1]): 21%
- inhibition at 0.00137 µM (PIK3C2B (PI3K-C2 beta); [2]): 33%
- inhibition at 0.0041 µM (PIK3C2B (PI3K-C2 beta); [1]): 58%
- inhibition at 0.0041 µM (PIK3C2B (PI3K-C2 beta); [2]): 27%
- inhibition at 0.0123 µM (PIK3C2B (PI3K-C2 beta); [1]): 61%
- inhibition at 0.0123 µM (PIK3C2B (PI3K-C2 beta); [2]): 49%
- inhibition at 0.037 µM (PIK3C2B (PI3K-C2 beta); [1]): 74%
- inhibition at 0.037 µM (PIK3C2B (PI3K-C2 beta); [2]): 82%
- inhibition at 0.111 µM (PIK3C2B (PI3K-C2 beta); [1]): 92%
- inhibition at 0.111 µM (PIK3C2B (PI3K-C2 beta); [2]): 90%
- inhibition at 0.333 µM (PIK3C2B (PI3K-C2 beta); [1]): 94%
- inhibition at 0.333 µM (PIK3C2B (PI3K-C2 beta); [2]): 93%
- inhibition at 1 µM (PIK3C2B (PI3K-C2 beta); [1]): 93%
- inhibition at 1 µM (PIK3C2B (PI3K-C2 beta); [2]): 95%
- IC50 (PIK3C2B (PI3K-C2 beta); [ATP] 10 uM): 9.57 nM
